In the supplement of paper PMC11061612:

Legend:
Assay in all cases: Bliss excess, mean over the matrix (fraction); higher = more synergy
[1] = test system: KARPAS-231 (B-Cell Non-Hodgkin's Lymphoma)
Outline: (§1)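 After 24 hours at 37°C and 5% CO2 in 1536-well plates, cells in DMEM/F12 or RPMI plus 10% FBS received two-drug dose matrices for 72 hours. Viability came from CellTiter-Glo 2.0 luminescence and was scaled as inhibition, anchored at 0 by vehicle wells and at 1 by blank wells. Combination Emax is taken as the second-highest inhibition in the matrix, and Bliss excess as the observed combination effect less EA + EB − EA·EB, with EA and EB the single-agent effects.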

[2] = test system: UMC-11 (Other Solid Carcinomas)
Outline: as §1

[3] = test system: HARA (Squamous Cell Lung Carcinoma)
Outline: as §1

[4] = test system: RT-112 (Bladder Carcinoma)
Outline: as §1

[5] = test system: SUP-T1 (T-Lymphoblastic Leukemia)
Outline: as §1

[6] = test system: LB771-HNC (Head and Neck Carcinoma)
Outline: as §1

[7] = test system: Hs-633T (Other Solid Carcinomas)
Outline: as §1

[8] = test system: 639-V (Bladder Carcinoma)
Outline: as §1

[9] = test system: NCI-H747 (Colorectal Carcinoma)
Outline: as §1

[10] = test system: NCI-H69 (Small Cell Lung Carcinoma)
Outline: as §1

[11] = test system: HO-1-u-1 (Oral Cavity Carcinoma)
Outline: as §1

[12] = test system: OVCAR-8 (Ovarian Carcinoma)
Outline: as §1

[13] = test system: LoVo (Colorectal Carcinoma)
Outline: as §1

[14] = test system: TE-4 (Esophageal Squamous Cell Carcinoma)
Outline: as §1

[15] = test system: HMV-II (Melanoma)
Outline: as §1

[16] = test system: MDA-MB-468 (Breast Carcinoma)
Outline: as §1

[17] = test system: EN (Endometrial Carcinoma)
Outline: as §1

[18] = test system: NB14 (Neuroblastoma)
Outline: as §1

[19] = test system: PCI-30 (Head and Neck Carcinoma)
Outline: as §1

[20] = test system: CAPAN-1 (Pancreatic Carcinoma)
Outline: as §1

| SMILES | Bliss excess [1] | Bliss excess [2] | Bliss excess [3] | Bliss excess [4] | Bliss excess [5] | Bliss excess [6] | Bliss excess [7] | Bliss excess [8] | Bliss excess [9] | Bliss excess [10] | Bliss excess [11] | Bliss excess [12] | Bliss excess [13] | Bliss excess [14] | Bliss excess [15] | Bliss excess [16] | Bliss excess [17] | Bliss excess [18] | Bliss excess [19] | Bliss excess [20] |
| --- | --- | --- | --- | --- | --- | --- | --- | --- | --- | --- | --- | --- | --- | --- | --- | --- | --- | --- | --- | --- |
| COc1cccc(OCCCN)c1-c1cc(Nc2cnc(C#N)cn2)n[nH]1 [Prexasertib] + C[C@@H]1COCCN1C2=NC(=NC(=C2)C3(CC3)[S@](=N)(=O)C)C4=C5C=CNC5=NC=C4 [AZD6738] (first compound max 1 µM, 7x7, partner max 10 µM) | -0.0498 | -0.0213 | -0.0117 | 0.0275 | -0.0374 | -0.0024 | 0.0095 | 0.0838 | -0.0294 | -0.0356 | -0.0013 | -0.0151 | -0.0296 | 0.0058 | 0.0359 | -0.0106 | -0.0416 | 0.0092 | 0.003 | -0.0436 |
| COc1cccc2c1C(=O)c1c(O)c3c(c(O)c1C2=O)C[C@@](O)(C(=O)CO)C[C@@H]3O[C@H]1C[C@H](N)[C@H](O)[C@H](C)O1 [Doxorubicin] + Cc1cc2ncnn2cc1Nc1ncc2c(n1)n(C1CCOCC1)c(=O)n2C [AZD7648] (first compound max 1 µM, 7x7, partner max 10 µM) | 0.0522 | 0.07 | 0.0915 | 0.151 | 0.0368 | -0.035 | 0.118 | 0.117 | 0.0388 | 0.0064 | 0.0091 | 0.061 | 0.0105 | -0.0039 | 0.062 | 0.0309 | 0.0108 | 0.0203 | 0.006 | 0.0038 |
| Cc1c2c(nn1C)CSCc1cc(n(C)n1)CSc1cc(c3ccccc3c1)OCCCc1c(C(=O)O)n(C)c3c-2c(Cl)ccc13 [AZD5991] + CN(C)CCCOc1ccc(-c2ccc3ncc4c(c3c2)n(C2CCOCC2)c(=O)n4C)cn1 [AZD0156] (first compound max 1 µM, 7x7, partner max 1 µM) | 0.041 | 0.0551 |  | -0.0217 | -0.0007 | 0.0096 | 0.0239 | -0.0065 | -0.0289 | -0.0614 | 0.04 | 0.0408 | -0.0005 | 0.0186 | -0.033 | -0.0544 | -0.024 | 0.0091 | 0.0079 | -0.0229 |
| CC(=O)c1c(C)c2cnc(Nc3ccc(N4CCNCC4)cn3)nc2n(C2CCCC2)c1=O [Palbociclib] + Cn1cnc2c(F)c(Nc3ccc(Br)cc3Cl)c(C(=O)NOCCO)cc21 [Selumetinib] (first compound max 10 µM, 7x7, partner max 10 µM) | -0.134 | 0.079 | 0.0219 | -0.0333 | -0.0478 | -0.0893 | 0.0767 | -0.0833 | -0.0022 | -0.0071 | 0.0772 | -0.0412 | 0.0093 | -0.0115 | -0.0203 | -0.0555 | -0.0205 | 0.0461 | -0.0814 | -0.0741 |
| CCN(CCO)CCCOc1ccc2c(Nc3cc(CC(=O)Nc4cccc(F)c4)[nH]n3)ncnc2c1 [AZD2811] + C[C@@H]1COCCN1C2=NC(=NC(=C2)C3(CC3)[S@](=N)(=O)C)C4=C5C=CNC5=NC=C4 [AZD6738] (first compound max 1 µM, 7x7, partner max 10 µM) | 0.0064 | -0.0488 | 0.0144 | -0.0581 | -0.0291 | -0.0492 | -0.0197 | -0.0164 | -0.044 | -0.0552 | -0.023 | -0.0192 | -0.104 | -0.047 | -0.0395 | -0.0977 | -0.0866 | -0.0888 | -0.0516 | -0.0939 |
| NC1(C(=O)N[C@@H](CCO)c2ccc(Cl)cc2)CCN(c2ncnc3[nH]ccc23)CC1 [Capivasertib] + CCN(CCO)CCCOc1ccc2c(Nc3cc(CC(=O)Nc4cccc(F)c4)[nH]n3)ncnc2c1 [AZD2811] (first compound max 10 µM, 7x7, partner max 1 µM) | -0.111 | -0.0195 | 0.0137 | -0.0152 | 0.0016 | -0.0549 | 0.0136 | 0.0193 | -0.0255 | 0.0132 | -0.0122 | 0.001 | -0.0387 | 0.0241 | -0.0457 | -0.063 | -0.0464 | -0.03 | -0.0595 | -0.0486 |
